Values belong to the compound of their own block, whether it stands above or below them.
Legend:
Type in all cases: cell-based
GSPT1 (eRF3a) = molecular target: T1, GSPT1 (eRF3a) (Homo sapiens, UniProt P15170+Q96SW2); assay: Western blot assay in PC-3 cells: GSPT1 (eRF3a); details: different concentrations at 24 h (FIG. 9)
T1 construct: The downregulation of SRD5A3 and GSPT1 (eRF3a) proteins in PC-3 and HepG2 cells by C59; endogenous in cells; host or cells: 22Rv1, PC-3, HepG2
Excerpt: Example 84: Western Blot Assay of Compound C59 in 22Rv1, PC-3, and HepG2 Cells
(1) Materials: 22Rv1, PC-3, and HepG2 cell, anti-SRD5A1 antibody (ab167606), anti-SRD5A2 antibody (ab124877), anti-SRD5A3 antibody (PA5-107029), anti-androgen receptor (AR) antibody (CST, No. 5153), anti-GSPT1 antibody (Abcam, ab234433), anti-GADPH antibody (CST, No. 5174), anti-c-Myc antibody (CST, No. 8583), anti-α-tublin antibody (CST, No. 2125), anti-rabbit IgG, HRP-linked antibody (CST, No. 7074), electrophoresis device and membrane transfer device (LIUYI, BEIJING; DYCZ-24DN)
Cell seeding: 22Rv1 (Cell Bank of the Chinese Academy of Sciences, TCHu100), PC-3 (Cell Bank of the Chinese Academy of Sciences, SCSP-532) and HepG2 cells (Cell Bank of the Chinese Academy of Sciences, TCHu72) were subcultured and trypsinized to prepare 6×10^5 cells/mL suspensions, seeded on 6-well plates (3 mL/well), and cultured overnight in a cell incubator at 5% CO2 and 37° C. […]
Protein quantification: The protein was quantified using a BCA protein quantification kit. […]
Western immunoblot assay (or Western blot, WB): SDS-PAGE gel at a proper concentration was prepared according to the molecular weight of the target protein: for example, the concentration of the separation gel was 8% and the concentration of the stacking gel was 5%. The loading volume was adjusted according to the protein quantification results. […]

AGS cells = assay: Anti-proliferative toxicity of C63 in tumor cell lines (CCK8): AGS; details: Homo sapiens, 72 h, 3 days, read-out: Inhibition rate
Experimental: (§1) Example 83: Detection of Anti-Proliferative Toxicity of C63 in Some Tumor Cell Lines
AGS cells (purchased from the Cell Bank of the Chinese Academy of Sciences, Cat. No. TCHu232) were subcultured in a culture medium (F12K medium+[…] dual-antibiotic solution+10% fetal bovine serum) in an incubator at […] and 37° C.
AGS cells were seeded at 2000 cells/well (90 μL) on a 96-well plate and cultured for 24 h.
(§2) 10 mM compound stock solutions were prepared in DMSO.
(§3) The compound stock solution was diluted with DMSO to give DMSO solutions 1-9 at concentrations of 0 μM, 2500 μM, 500 μM, 100 μM, 20 μM, 4 μM, 0.8 μM, 0.16 μM, and 0.032 μM.
(§4) 2 μL of each of solutions 1-9 was added to 98 μL of the medium to give mixed solutions 11-19 of the compound and the medium.
(§5) 10 μL of each of solutions 11-19 was added to the above cell seed solution to give a total volume of 100 μL (90 μL+10 μL).
(§6) The concentrations of the compound in the wells were 0 μM, 5.0 μM, 1.0 μM, 0.2 μM, 0.04 μM, 0.008 μM, 0.0016 μM, 0.00032 μM, and 0.000064 μM. All concentrations were in triplicate.
(§7) After the above-treated cells were cultured for 3 days, 10 μL of the CCK8 solution (DOJINDO, Cat. No. PF725) was added to each well. The plate was incubated in an incubator at 37° C. for 1-4 h and then detected on a microplate reader for the reading at 450 nm.

Ca Ski cells = assay: Anti-proliferative toxicity of C63 in tumor cell lines (CCK8): Ca Ski; details: Homo sapiens, 72 h, 3 days, read-out: Inhibition rate
Experimental: as §1
Ca Ski cells (purchased from the Cell Bank of the Chinese Academy of Sciences, Cat. No. TCHu137) were subcultured in a culture medium (RPMI-1640 medium+1% penicillin-streptomycin dual-antibiotic solution+10% fetal bovine serum) in an incubator at 5% carbon dioxide and 37° C.
Ca Ski cells were seeded at 5000 cells/well (90 μL) on a 96-well plate and cultured for 24 h.
as §2, §3, §4, §5, §6, §7

SNU-1 cells = assay: Anti-proliferative toxicity of C63 in tumor cell lines (CCK8): SNU-1; details: Homo sapiens, SNU1, 72 h, 3 days, read-out: Inhibition rate
Experimental: as §1
SNU-1 cells (purchased from the Cell Bank of the Chinese Academy of Sciences, Cat. No. TCHu230) were subcultured in a culture medium (RPMI-1640 medium+1% penicillin-streptomycin dual-antibiotic solution+10% fetal bovine serum) in an incubator at 5% carbon dioxide and 37° C.
SNU-1 cells were seeded at 5000 cells/well (90 μL) on a 96-well plate and cultured for 24 h.
as §2, §3, §4, §5, §6, §7

T1 sequence (P15170 1-637 isoform P15170-3): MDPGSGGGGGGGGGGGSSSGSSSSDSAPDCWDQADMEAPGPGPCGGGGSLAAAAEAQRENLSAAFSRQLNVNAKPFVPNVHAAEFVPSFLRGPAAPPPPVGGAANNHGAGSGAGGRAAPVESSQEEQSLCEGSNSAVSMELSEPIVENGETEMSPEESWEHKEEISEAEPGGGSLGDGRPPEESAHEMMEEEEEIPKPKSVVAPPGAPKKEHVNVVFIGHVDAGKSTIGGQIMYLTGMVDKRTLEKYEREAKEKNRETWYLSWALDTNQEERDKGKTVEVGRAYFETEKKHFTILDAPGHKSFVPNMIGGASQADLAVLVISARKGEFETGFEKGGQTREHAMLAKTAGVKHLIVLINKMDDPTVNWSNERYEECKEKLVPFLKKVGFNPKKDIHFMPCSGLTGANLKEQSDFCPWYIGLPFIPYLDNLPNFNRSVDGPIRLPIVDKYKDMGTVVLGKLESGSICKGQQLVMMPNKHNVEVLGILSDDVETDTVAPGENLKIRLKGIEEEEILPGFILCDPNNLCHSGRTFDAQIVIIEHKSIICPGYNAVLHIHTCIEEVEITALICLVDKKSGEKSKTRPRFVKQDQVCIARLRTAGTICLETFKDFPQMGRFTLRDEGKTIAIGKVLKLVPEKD
T1 sequence (Q96SW2 whole entry): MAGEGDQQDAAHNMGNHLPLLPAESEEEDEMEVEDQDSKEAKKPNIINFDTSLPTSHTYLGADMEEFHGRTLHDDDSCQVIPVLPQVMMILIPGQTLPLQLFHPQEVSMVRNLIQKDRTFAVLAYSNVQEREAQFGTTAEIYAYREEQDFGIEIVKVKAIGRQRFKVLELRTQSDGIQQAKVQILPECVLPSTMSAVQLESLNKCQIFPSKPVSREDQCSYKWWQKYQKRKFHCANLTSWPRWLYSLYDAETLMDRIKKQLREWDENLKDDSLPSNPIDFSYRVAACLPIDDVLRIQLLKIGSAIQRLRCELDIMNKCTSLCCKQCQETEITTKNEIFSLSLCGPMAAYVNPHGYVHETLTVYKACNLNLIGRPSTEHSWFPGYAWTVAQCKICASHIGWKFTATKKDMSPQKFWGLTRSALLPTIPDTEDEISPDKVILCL
T1 sequence (Q16531 whole entry partner): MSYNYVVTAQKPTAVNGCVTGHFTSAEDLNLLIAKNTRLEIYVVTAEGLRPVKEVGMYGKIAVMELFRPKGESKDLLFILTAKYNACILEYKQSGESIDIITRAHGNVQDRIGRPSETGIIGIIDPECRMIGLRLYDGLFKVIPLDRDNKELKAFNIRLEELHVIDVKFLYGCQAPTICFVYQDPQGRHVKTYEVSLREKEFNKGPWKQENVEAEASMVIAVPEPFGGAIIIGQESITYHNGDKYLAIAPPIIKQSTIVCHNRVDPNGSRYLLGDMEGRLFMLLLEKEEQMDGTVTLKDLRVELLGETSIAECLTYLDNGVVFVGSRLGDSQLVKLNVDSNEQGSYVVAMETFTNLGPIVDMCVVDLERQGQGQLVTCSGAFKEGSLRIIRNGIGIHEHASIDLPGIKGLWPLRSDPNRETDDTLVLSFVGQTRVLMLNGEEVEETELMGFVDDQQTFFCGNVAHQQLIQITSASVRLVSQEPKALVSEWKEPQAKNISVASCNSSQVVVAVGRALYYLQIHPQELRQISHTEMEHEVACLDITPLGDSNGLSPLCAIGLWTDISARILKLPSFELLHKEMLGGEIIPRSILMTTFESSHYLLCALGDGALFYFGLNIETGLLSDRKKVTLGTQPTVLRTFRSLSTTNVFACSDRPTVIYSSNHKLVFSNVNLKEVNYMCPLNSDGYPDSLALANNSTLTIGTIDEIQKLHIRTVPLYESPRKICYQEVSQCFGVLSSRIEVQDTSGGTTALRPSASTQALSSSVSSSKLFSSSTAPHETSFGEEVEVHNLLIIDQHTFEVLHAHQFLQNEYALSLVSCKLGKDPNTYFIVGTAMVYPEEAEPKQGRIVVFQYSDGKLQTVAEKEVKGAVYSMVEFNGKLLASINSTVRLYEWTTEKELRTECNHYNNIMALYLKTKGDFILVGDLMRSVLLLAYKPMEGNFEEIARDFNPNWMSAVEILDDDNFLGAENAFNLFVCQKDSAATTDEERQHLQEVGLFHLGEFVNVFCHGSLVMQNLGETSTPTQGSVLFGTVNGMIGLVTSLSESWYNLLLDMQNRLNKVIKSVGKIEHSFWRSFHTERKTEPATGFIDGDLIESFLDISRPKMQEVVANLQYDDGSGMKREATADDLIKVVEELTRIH

downregulation of GSPT1 (eRF3a) protein (Western blot) (GSPT1 (eRF3a)): downregulation
Structure (SMILES): C[C@]12C=CC(=O)N[C@@H]1CC[C@@H]1[C@@H]2CC[C@]2(C)[C@@H](C(=O)Nc3cccc(N[C@@H]4CCC[C@@H](Nc5cccc6c5C(=O)N(C5CCC(=O)NC5=O)C6=O)C4)c3)CC[C@@H]12 (stereo partly drawn) [C59, N-(3-(N—(N-(4-(2-(3-(2,6-dioxopiperidine))-isoindole-1,3-dione))-1R,3R-cyclohexanediamine))phenyl)-3-oxo-4-aza-5α-androst-1-ene-17β-carboxamide]

Structure (SMILES): C[C@]12C=CC(=O)N[C@@H]1CC[C@@H]1[C@@H]2CC[C@]2(C)[C@@H](C(=O)Nc3cccc(N[C@@H]4CCC[C@@H](Nc5cccc6c5C(=O)N([C@H]5CCC(=O)NC5=O)C6=O)C4)c3)CC[C@@H]12 [C63, N-(3-(N—(N-(4-(2-(3S-(2,6-dioxopiperidine))-isoindole-1,3-dione))-1R,3R-cyclohexanediamine))phenyl)-3-oxo-4-aza-5α-androst-1-ene-17β-carboxamide]
inhibition at 64 pM (AGS cells; 0.000064 μM): 17.5%
inhibition at 0.00032 µM (AGS cells; 0.000320 μM): 11.1%
inhibition at 0.0016 µM (AGS cells; 0.001600 μM): 20.4%
inhibition at 0.008 µM (AGS cells; 0.008000 μM): 44.2%
inhibition at 0.04 µM (AGS cells; 0.040000 μM): 59.7%
inhibition at 0.2 µM (AGS cells; 0.200000 μM): 74%
inhibition at 1 µM (AGS cells; 1.000000 μM): 79.8%
inhibition at 5 µM (AGS cells; 5.000000 μM): 80.8%
inhibition at 64 pM (Ca Ski cells; 0.000064 μM): 2.03%
inhibition at 0.00032 µM (Ca Ski cells; 0.000320 μM): 6.27%
inhibition at 0.0016 µM (Ca Ski cells; 0.001600 μM): 42.9%
inhibition at 0.008 µM (Ca Ski cells; 0.008000 μM): 65.4%
inhibition at 0.04 µM (Ca Ski cells; 0.040000 μM): 73.9%
inhibition at 0.2 µM (Ca Ski cells; 0.200000 μM): 78%
inhibition at 1 µM (Ca Ski cells; 1.000000 μM): 77.8%
inhibition at 5 µM (Ca Ski cells; 5.000000 μM): 78.1%
inhibition at 64 pM (SNU-1 cells; 0.000064 μM): 10.2%
inhibition at 0.00032 µM (SNU-1 cells; 0.000320 μM): 28.9%
inhibition at 0.0016 µM (SNU-1 cells; 0.001600 μM): 65.1%
inhibition at 0.008 µM (SNU-1 cells; 0.008000 μM): 75.2%
inhibition at 0.04 µM (SNU-1 cells; 0.040000 μM): 82.7%
inhibition at 0.2 µM (SNU-1 cells; 0.200000 μM): 82%
inhibition at 1 µM (SNU-1 cells; 1.000000 μM): 80.9%
inhibition at 5 µM (SNU-1 cells; 5.000000 μM): 79.9%

Reference: patent US20250213701A1, “MEDICAMENT FOR TREATING HUMAN TUMOR BASED ON ERF3A-TARGETING PROTEOLYSIS MECHANISM” (SUZHOU DEGEN BIO-MEDICAL CO., LTD., priority 2022, published 2025)
